Patent US12741974B2, “Compounds constituting C20-modified salinomycin derivatives, a method for obtaining the same, a composition containing the same, a use of said compounds and a method for obtaining an intermediate product” (FILECLO SP. Z O.O., priority 2020, dated 2021)
pIC50: −log10 of the molar value.

How the values were obtained:
Format in all cases: cell-based
[1] = test system: B16-F0 (murine melanoma); assay: In vitro cytotoxicity test, SRB assay, 72 h incubation with compound; details: for pIC50: B16-F0 murine melanoma, SRB, 72 h; for SI B16-F0: selectivity coefficient, BALB/3T3 versus B16-F0
Description: (§1) In vitro cytotoxicity tests were performed according to the procedure described below. […] The solvent for further dilutions was a culture medium.
(§2) The experiments were repeated at least 3 times.

[2] = test system: Hs294T (human melanoma); assay: as above; details: for pIC50: Hs294T human melanoma, SRB, 72 h; for SI Hs294T: selectivity coefficient, BALB/3T3 versus Hs294T
Description: as §1, §2

[3] = test system: LoVo (drug-sensitive human colon cancer); assay: as above; details: for pIC50: LoVo drug-sensitive human colon cancer, SRB, 72 h; for SI LoVo: selectivity coefficient, BALB/3T3 versus LoVo
Description: as §1, §2

[4] = test system: LoVo/DX (drug-resistant human colon cancer); assay: as above; details: for pIC50: LoVo/DX drug-resistant human colon cancer, SRB, 72 h; for RI: drug resistance coefficient, LoVo/DX versus LoVo, 4320 min; for SI LoVo/DX: selectivity coefficient, BALB/3T3 versus LoVo/DX
Description: as §1, §2

[5] = test system: MCF-7 (human breast cancer); assay: as above; details: for pIC50: MCF-7 human breast cancer, SRB, 72 h; for SI MCF-7: selectivity coefficient, BALB/3T3 versus MCF-7
Description: as §1, §2

[6] = test system: MV-4-11 (human biphenotypic leukaemia); assay: In vitro cytotoxicity test, MTT assay, 72 h incubation with compound; details: for pIC50: MV-4-11 human biphenotypic leukaemia, MTT, 72 h; for SI MV-4-11: selectivity coefficient, BALB/3T3 versus MV-4-11
Description: as §1, §2
After 4 hours of incubation at 37° C., 80 μL of lysis buffer was added to each well.

[7] = In vitro cytotoxicity test on normal cells, SRB assay, 72 h incubation with compound; details: mouse, balb/3t3 cells, normal murine fibroblasts, read-out: IC50 BALB/3T3
Description: Normal murine BALB/3T3 fibroblasts were also used in the tests for determining the selectivity coefficients of the compounds used in the assays.
as §1, §2

| SMILES | pIC50 [1] | pIC50 [2] | pIC50 [3] | pIC50 [4] | RI [4] | pIC50 [5] | pIC50 [6] | pIC50 ([1]; Mus musculus, B16F0) | SI B16-F0 [1] | pIC50 ([2]; Hs 294T) | SI Hs294T [2] | SI LoVo [3] | SI LoVo/DX [4] | pIC50 ([5]; MCF7) | SI MCF-7 [5] | pIC50 ([6]; MV4-11) | SI MV-4-11 [6] | CC50 at 72 h [7] |
| --- | --- | --- | --- | --- | --- | --- | --- | --- | --- | --- | --- | --- | --- | --- | --- | --- | --- | --- |
| N.N.[Cl][Pt][Cl] [cisplatin, reference compound] | 5.42 | 5.40 | 5.16 | 5.10 | 1.1 | 5.14 | 5.47 |  |  |  |  |  |  |  |  |  |  |  |
| CC[C@@H](C(=O)[C@@H](C)[C@@H](O)[C@H](C)[C@@H]1O[C@@H]([C@@H](CC)C(=O)O)CC[C@@H]1C)[C@H]1O[C@]2(C=C[C@@H](NC(=O)c3ccc(CCl)cc3)[C@]3(CC[C@@](C)([C@H]4CC[C@](O)(CC)[C@H](C)O4)O3)O2)[C@H](C)C[C@@H]1C [(16), C20-dehydroxy-C20-aminosalinomycin N-(4-chloromethyl)benzamide] |  |  | 6.54 | 6.20 | 2.2 |  |  | 6.32 | 5.2 | 7.52 | 83.3 | 8.6 | 4.0 | 6.24 | 4.3 | 7.52 | 83.3 | 2500 nM |
| CCOC(=O)N[C@@H]1C=C[C@]2(O[C@H]([C@@H](CC)C(=O)[C@@H](C)[C@@H](O)[C@H](C)[C@@H]3O[C@@H]([C@@H](CC)C(=O)O)CC[C@@H]3C)[C@@H](C)C[C@H]2C)O[C@@]12CC[C@@](C)([C@H]1CC[C@](O)(CC)[C@H](C)O1)O2 [(19), C20-dehydroxy-C20-aminosalinomycin N-ethylcarbamate] |  |  | 6.80 | 4.37 | 269.4 |  |  | 7.52 | 32.3 | 8.00 | 97.0 | 6.1 | 0.02 | 6.27 | 1.8 | 7.40 | 24.3 | 970 nM |
| CC[C@@H](C(=O)[C@@H](C)[C@@H](O)[C@H](C)[C@@H]1O[C@@H]([C@@H](CC)C(=O)O)CC[C@@H]1C)[C@H]1O[C@]2(C=C[C@@H](NC(=O)CCl)[C@]3(CC[C@@](C)([C@H]4CC[C@](O)(CC)[C@H](C)O4)O3)O2)[C@H](C)C[C@@H]1C [(11), C20-dehydroxy-C20-aminosalinomycin N-chloroacetamide] |  |  | 6.03 | 6.21 | 0.7 |  |  | 6.40 | 6.5 | 7.22 | 43.2 | 2.8 | 4.2 | 6.09 | 3.2 | 6.55 | 9.2 | 2590 nM |
| CC[C@@H](C(=O)[C@@H](C)[C@@H](O)[C@H](C)[C@@H]1O[C@@H]([C@@H](CC)C(=O)O)CC[C@@H]1C)[C@H]1O[C@]2(C=C[C@@H](NC(=O)OC)[C@]3(CC[C@@](C)([C@H]4CC[C@](O)(CC)[C@H](C)O4)O3)O2)[C@H](C)C[C@@H]1C [(18), C20-dehydroxy-C20-aminosalinomycin N-methylcarbamate] |  |  | 6.32 | 6.80 | 0.3 |  |  | 7.30 | 35.2 | 7.70 | 88.0 | 3.7 | 11.0 | 6.24 | 3.1 | 7.15 | 25.1 | 1760 nM |
| CC[C@@H](C(=O)[C@@H](C)[C@@H](O)[C@H](C)[C@@H]1O[C@@H]([C@@H](CC)C(=O)O)CC[C@@H]1C)[C@H]1O[C@]2(C=C[C@@H](NC(=O)COC)[C@]3(CC[C@@](C)([C@H]4CC[C@](O)(CC)[C@H](C)O4)O3)O2)[C@H](C)C[C@@H]1C [(13), C20-dehydroxy-C20-aminosalinomycin N-methoxyacetamide] |  |  | 6.17 | 5.63 | 3.5 |  |  | 6.28 | 26.4 | 7.22 | 233.5 | 20.9 | 6.0 | 5.88 | 10.7 | 6.57 | 51.9 | 14000 nM |
